Reference: the NIST ThermoML archive (doi:10.1016/j.jct.2004.09.021)

Assays:
[1] = refractive index (Na D-line) (dimensionless); xn = mol fraction of the nth substance listed; details: 101 kPa, Liquid
[2] = xn = mol fraction of the nth substance listed; details: 101 kPa, Liquid

COc1ccccc1 [anisole] + CCCCCC
Details | mass density, 293.15 K [kg/m3] | mass density, 298.15 K [kg/m3] | mass density, 303.15 K [kg/m3] | refractive index, 293.15 K | refractive index, 298.15 K | refractive index, 303.15 K | viscosity, 293.15 K [mPa·s] | viscosity, 298.15 K [mPa·s] | viscosity, 303.15 K [mPa·s]
[1], x1 = 0.095 | – | – | – | 1.3873 | 1.3844 | 1.3819 | – | – | –
[1], x1 = 0.193 | – | – | – | 1.399 | 1.3952 | 1.3931 | – | – | –
[1], x1 = 0.288 | – | – | – | 1.4109 | 1.4081 | 1.4061 | – | – | –
[1], x1 = 0.391 | – | – | – | 1.4243 | 1.4217 | 1.4197 | – | – | –
[1], x1 = 0.5121 | – | – | – | 1.4408 | 1.4382 | 1.4365 | – | – | –
[1], x1 = 0.5942 | – | – | – | 1.4525 | 1.45 | 1.4483 | – | – | –
[1], x1 = 0.678 | – | – | – | 1.4651 | 1.4626 | 1.4609 | – | – | –
[1], x1 = 0.779 | – | – | – | 1.4807 | 1.4783 | 1.4767 | – | – | –
[1], x1 = 0.881 | – | – | – | 1.497 | 1.4946 | 1.4931 | – | – | –
[1], x1 = 1 | – | – | – | 1.5161 | 1.5141 | 1.5129 | – | – | –
[2], x1 = 0.0993 | 688.1 | 683.56 | 678.98 | – | – | – | 0.3336 | 0.3159 | 0.305
[2], x1 = 0.1959 | 716.85 | 712.32 | 707.69 | – | – | – | 0.3594 | 0.3451 | 0.3257
[2], x1 = 0.3008 | 749.04 | 744.42 | 739.83 | – | – | – | 0.3971 | 0.3776 | 0.3565
[2], x1 = 0.3998 | 780.42 | 775.78 | 771.15 | – | – | – | 0.4376 | 0.4157 | 0.396
[2], x1 = 0.5045 | 814.71 | 810.08 | 805.39 | – | – | – | 0.4958 | 0.4701 | 0.4451
[2], x1 = 0.5936 | 844.84 | 840.19 | 835.52 | – | – | – | 0.5596 | 0.529 | 0.5002
[2], x1 = 0.6834 | 876.15 | 871.52 | 866.76 | – | – | – | 0.6392 | 0.6028 | 0.5681
[2], x1 = 0.7909 | 914.94 | 910.25 | 905.45 | – | – | – | 0.756 | 0.71 | 0.6685
[2], x1 = 0.8975 | 954.65 | 949.92 | 945.31 | – | – | – | 0.9044 | 0.8483 | 0.7899
[2], x1 = 1 | 993.81 | 989.15 | 984.42 | – | – | – | 1.085 | 1.017 | 0.9285

COc1ccccc1 [anisole] + CCCCCCC
Details | mass density, 293.15 K [kg/m3] | mass density, 298.15 K [kg/m3] | mass density, 303.15 K [kg/m3] | refractive index, 293.15 K | refractive index, 298.15 K | refractive index, 303.15 K | viscosity, 293.15 K [mPa·s] | viscosity, 298.15 K [mPa·s] | viscosity, 303.15 K [mPa·s]
[1], x1 = 0.1007 | – | – | – | 1.3975 | 1.3954 | 1.3924 | – | – | –
[1], x1 = 0.21 | – | – | – | 1.4087 | 1.4064 | 1.4036 | – | – | –
[1], x1 = 0.31 | – | – | – | 1.4189 | 1.4167 | 1.414 | – | – | –
[1], x1 = 0.405 | – | – | – | 1.4294 | 1.4272 | 1.4248 | – | – | –
[1], x1 = 0.4985 | – | – | – | 1.4407 | 1.4385 | 1.4362 | – | – | –
[1], x1 = 0.583 | – | – | – | 1.4516 | 1.4495 | 1.4474 | – | – | –
[1], x1 = 0.6989 | – | – | – | 1.4683 | 1.466 | 1.464 | – | – | –
[1], x1 = 0.792 | – | – | – | 1.4826 | 1.4802 | 1.4782 | – | – | –
[1], x1 = 0.8941 | – | – | – | 1.499 | 1.4966 | 1.4947 | – | – | –
[1], x1 = 1 | – | – | – | 1.5161 | 1.5141 | 1.5129 | – | – | –
[2], x1 = 0.1002 | 707.25 | 702.96 | 698.59 | – | – | – | 0.4315 | 0.4121 | 0.3918
[2], x1 = 0.2002 | 731.96 | 727.61 | 723.18 | – | – | – | 0.4541 | 0.434 | 0.4135
[2], x1 = 0.2987 | 757.78 | 753.37 | 748.88 | – | – | – | 0.4775 | 0.4581 | 0.4356
[2], x1 = 0.3994 | 785.83 | 781.36 | 776.8 | – | – | – | 0.5184 | 0.4896 | 0.4639
[2], x1 = 0.4996 | 815.43 | 810.9 | 806.29 | – | – | – | 0.5675 | 0.5347 | 0.5064
[2], x1 = 0.5958 | 845.62 | 841.04 | 836.39 | – | – | – | 0.6285 | 0.5911 | 0.5603
[2], x1 = 0.6993 | 880.28 | 875.65 | 870.94 | – | – | – | 0.7129 | 0.6692 | 0.6322
[2], x1 = 0.7981 | 915.67 | 911.07 | 906.4 | – | – | – | 0.8105 | 0.7613 | 0.7161
[2], x1 = 0.8991 | 953.76 | 949.15 | 944.46 | – | – | – | 0.9337 | 0.8767 | 0.8197
[2], x1 = 1 | 993.81 | 989.15 | 984.42 | – | – | – | 1.085 | 1.017 | 0.9285
